The values that follow are results of earlier work, collected in publication PMC4853309 (Protein expression and purification, 2015).

The series concerns the target NprR. The note with it: read-out: estimated binding affinity (KD); cited from earlier work.

Turning to SKPDIVG [NprX7], the dissociation constant (Kd) was roughly 50 nM.

One may read the Kd as the concentration at which binding is half-saturated.
